{"source": "patent US11726082B2", "about": "“Screening method of drug candidates for treating disease using interaction between calcium and phosphatidylinositol phosphate” (Gachon University of Industry—Academic Cooperation …, priority 2017, dated 2023)", "key": {"[1]": {"test_system": "human HepG2 cells", "test": "Intracellular calcium concentration with Fluo-3 AM in insulin resistance induced cells", "assay_type": "cell-based", "details": "PA 0, 100, 300 or 500 μM, 24 hours", "description": "First, male C57BL/6 mice at 8 weeks (Orient Bio, Korea) were raised in an animal facility of Lee Gil Ya Cancer and Diabetes Institute (Gachon University, Korea). Particularly, the mice were raised in a sterile chamber at the temperature of 23±1° C. with 12 hr/12 hr light/dark cycle, and free dietary environment. At this time, the mice were divided into the fasted group wherein the mice were fasted for 16 hours and the refed group wherein the mice were fasted for 16 hours and then fed for 4 hours. Each group was sub-divided into the high fat diet group (HFD) and the normal diet group (chow). The high fat diet group (HFD) mice were fed with diet containing 60% fat, while the normal diet group (chow) mice were fed with diet containing 10% fat. 8 weeks later, the mice were anesthetized and the liver was perfused by using buffer 1 (142 mM NaCl, 6.7 mM KCl, 10 mM HEPES and 2.5 mM EGTA, pH 7.4). Buffer 1 above was replaced with buffer 2 (0.5 mg/Mg […], 66.7 mM NaCl, 6.7 mM KCl, 10 mM HEPES and 4.8 mM CaCl, pH 7.6), and then the perfused liver was extracted. The extracted liver was washed and degraded by using Percoll cushion gradient. The degraded cells were suspended and cultured in Hepatozyme-SFM (Gibco-BRL USA) culture medium supplemented with 10% FBS and 1% antibiotics and antifungal agent. […] The mounted cells were analyzed using a fluorescence microscope (Zeiss Axioplan 2). […]"}, "[2]": {"test_system": "human HepG2 cells", "test": "Intracellular calcium dynamics with Fura-2 AM in insulin resistance induced cells", "assay_type": "cell-based", "details": "PA", "description": "First, human HepG2 cells were cultured in DMEM (Dulbecco's Modified Eagle Medium) supplemented with 10% fetal bovine serum (FBS), 25 mM glucose, 2 mM L-glutamine, 100 U/Ml of penicillin and 100 μg/Ml of streptomycin. At this time, the culture was performed in a 37° C., 5% CO2 incubator. The cultured cells were distributed in a culture plate at the density of 5.0×10^5 cells/well, followed by further culture for overnight. Palmitic acid (PA) was added to the plate at the concentration of 0, 100, 300 or 500 μM, followed by reaction for 24 hours. Then, the concentration of calcium was investigated by using Fluo-3 AM according to the same conditions and procedures as described in Example 1, and the results are shown in FIG. 2A and FIG. 2B.\nIntracellular calcium dynamics was confirmed in the fatty liver cell model constructed in vitro by inducing insulin resistance. At this time, the experiment was performed by the same manner under the same conditions as described in Example 3 except that Fura-2 AM was used instead of Fluo-3 AM."}, "[3]": {"test_system": "Akt protein", "test": "Western blotting of Akt protein phosphorylation in insulin-treated HepG2 cells", "assay_type": "cell-based, human", "details": "PA 24 hours, 100 nM insulin 15 minutes, compared with insulin alone", "description": "First, male C57BL/6 mice at 8 weeks were divided into the fasted group wherein the mice were fasted for 16 hours and the refed group wherein the mice were fasted for 16 hours and then fed for 4 hours. Each group was sub-divided into the high fat diet group (HFD) and the normal diet group (chow). The liver cells were extracted from the raised mice by the same manner and under the same conditions as described in Example 1. The extracted liver cells were lysed in a lysis buffer containing phosphatase (Sigma-Aldrich, USA) and protease inhibitor (Sigma-Aldrich, USA). Proteins extracted from 2 to 3 mg of the liver tissue were homogenized by using a tissue homogenizer (TissuLyser, Qiagen, USA) for 1.5 minutes at a frequency of 1/30 sec. The homogenized lysate was centrifuged at 12,000 rpm for 15 minutes and the supernatant was obtained. The amount of the extracted protein was quantified by using a protein assay kit (Bio-Rad Laboratories, USA), and at this time BSA was used as a standard sample. 3 mg of the protein was mixed with 6× loading buffer, followed by electrophoresis using 10% SDS-PAGE gel. The electrophoresed protein was transferred onto a polyvinylidene fluoride (PVDF) membrane by using a transfer buffer at 4° C. with 120 V for 1.5 hours. The PVDF membrane on which the protein was transferred was pretreated with a blocking buffer prepared by mixing 5% skim milk with TBS buffer (TBS-T, pH 7.6) supplemented with Tween 20 for 30 minutes, and the membrane was washed with TBS-T. The washed membrane was added with the antibody against Akt (Cell Signaling Technology, USA), Akt(T308) (Cell Signaling Technology, USA), Akt(S473) (Cell Signaling Technology, USA), FOXO3A (Cell Signaling Technology, USA), FOXO3A(S253) (Cell Signaling Technology, USA), GSK-3β (Cell Signaling Technology, USA) or GSK-3β(S9) (Cell Signaling Technology, USA) protein as a primary antibody, followed by reaction at 4° C. for 12 hours. At this time, the antibody against actin (Santa Cruz Biotechnology, USA) protein was used for the control group. Upon completion of the reaction, the secondary antibody corresponding to the primary antibody was added thereto, followed by reaction at room temperature for 30 minutes. The PVDF membrane was washed with TBS-T buffer three times. The washed PVDF membrane was added with ECL solution (Thermo Scientific, USA), followed by image observation.\nTo investigate the changes in insulin sensitivity when insulin was added to the fatty liver cell model constructed in vitro, the phosphorylations of those proteins that were involved in insulin signal transduction were examined. PA was added to the human HepG2 cells prepared in Example 3, followed by reaction for 24 hours. […]"}, "[4]": {"test_system": "Akt protein", "test": "Western blot of Akt activity with C2-Akt fusion protein and PI3K co-treated with PTEN or SHIP2", "assay_type": "cell-based", "details": "cells with C2-Akt fusion protein and PI3K vectors co-treated with PTEN or SHIP2", "description": "Particularly, the experiment was performed by the same manner under the same conditions as described in Example 2 except that the vector expressing the C2-Akt fusion protein and the vector expressing PI3K protein were co-treated with PTEN or SHIP2 and the antibody against Akt (Cell Signaling Technology, USA), Akt(T308) (Cell Signaling Technology, USA), Akt(S473) (Cell Signaling Technology, USA), PI3K (Cell Signaling Technology, USA), PTEN (Cell Signaling Technology, USA) or SHIP2 (Upstate Biotechnology, USA) protein was used as the primary antibody."}}, "data": [{"molecule": "CCCCCCCCCCCCCCCC(=O)O", "note": "[PA, Palmitic acid]", "values": [{"measurement": "concentration of calcium in the cytoplasm", "setting": "[1]", "value": "increased"}, {"measurement": "intracellular calcium concentration", "setting": "[2]", "value": "significantly increased"}, {"measurement": "Akt protein phosphorylation", "setting": "[3]", "value": "significantly inhibited"}]}, {"molecule": "SHIP2: co-treated with the C2-Akt and PI3K vectors (protein, UniProt O15357 1-1258, looked up) Phosphatidylinositol …: MASACGAPGPGGALGSQAPSWYHRDLSRAAAEELLARAGRDGSFLVRDSESVAGAFALCVLYQKHVHTYRILPDGEDFLAVQTSQGVPVRRFQTLGELIGLYAQPNQGLVCALLLPVEGEREPDPPDDRDASDGEDEKPPLPPRSGSTSISAPTGPSSPLPAPETPTAPAAESAPNGLSTVSHDYLKGSYGLDLEAVRGGASHLPHLTRTLATSCRRLHSEVDKVLSGLEILSKVFDQQSSPMVTRLLQQQNLPQTGEQELESLVLKLSVLKDFLSGIQKKALKALQDMSSTAPPAPQPSTRKAKTIPVQAFEVKLDVTLGDLTKIGKSQKFTLSVDVEGGRLVLLRRQRDSQEDWTTFTHDRIRQLIKSQRVQNKLGVVFEKEKDRTQRKDFIFVSARKREAFCQLLQLMKNKHSKQDEPDMISVFIGTWNMGSVPPPKNVTSWFTSKGLGKTLDEVTVTIPHDIYVFGTQENSVGDREWLDLLRGGLKELTDLDYRPIAMQSLWNIKVAVLVKPEHENRISHVSTSSVKTGIANTLGNKGAVGVSFMFNGTSFGFVNCHLTSGNEKTARRNQNYLDILRLLSLGDRQLNAFDISLRFTHLFWFGDLNYRLDMDIQEILNYISRKEFEPLLRVDQLNLEREKHKVFLRFSEEEISFPPTYRYERGSRDTYAWHKQKPTGVRTNVPSWCDRILWKSYPETHIICNSYGCTDDIVTSDHSPVFGTFEVGVTSQFISKKGLSKTSDQAYIEFESIEAIVKTASRTKFFIEFYSTCLEEYKKSFENDAQSSDNINFLKVQWSSRQLPTLKPILADIEYLQDQHLLLTVKSMDGYESYGECVVALKSMIGSTAQQFLTFLSHRGEETGNIRGSMKVRVPTERLGTRERLYEWISIDKDEAGAKSKAPSVSRGSQEPRSGSRKPAFTEASCPLSRLFEEPEKPPPTGRPPAPPRAAPREEPLTPRLKPEGAPEPEGVAAPPPKNSFNNPAYYVLEGVPHQLLPPEPPSPARAPVPSATKNKVAITVPAPQLGHHRHPRVGEGSSSDEESGGTLPPPDFPPPPLPDSAIFLPPSLDPLPGPVVRGRGGAEARGPPPPKAHPRPPLPPGPSPASTFLGEVASGDDRSCSVLQMAKTLSEVDYAPAGPARSALLPGPLELQPPRGLPSDYGRPLSFPPPRIRESIQEDLAEEAPCLQGGRASGLGEAGMSAWLRAIGLERYEEGLVHNGWDDLEFLSDITEEDLEEAGVQDPAHKRLLLDTLQLSK", "values": [{"measurement": "Akt protein activity", "setting": "[4]", "value": "reduced"}]}]}
